US20260000698A1 (priority 2022, published 2026)
Marks after values point to notes of the source that are not given here.

Key:
[1] = Plasma stability assay, mouse plasma; format: in vitro ADME, mouse (CD-1)
Procedure: Plasma stability assay. The plasma stability assay was performed in triplicate by incubating each selected compound (1 μmol/L final concentration) in normal mouse (CD-1) or human plasma (Innovative Research; Novi, MI, USA) diluted to 80% with 0.1 mol/L potassium phosphate buffer (pH 7.4) at 37° C. At 0, 1, 3, 6, and 24 h, a 50 μL aliquot of the plasma mixture was taken and quenched with 150 μL of acetonitrile containing 0.1% formic acid. The samples were then vortexed and centrifuged at 15,000 rpm (Eppendorf centrifuge 5424R; Enfield, CT, USA) for 5 min. The supernatants were collected and analyzed by LC-MS/MS to determine the in vitro plasma half-life (t1/2).

[2] = Liver S9 stability assay, human liver S9; settings: n = 2, mean±SD
SUV39H1 = biological target: T1, SUV39H1 (Homo sapiens, UniProt O43463); assay: Human MTase screening: SUV39H1; format: biochemical
T1 construct: purchased BPS Bioscience
T1 sequence (O43463 1-412): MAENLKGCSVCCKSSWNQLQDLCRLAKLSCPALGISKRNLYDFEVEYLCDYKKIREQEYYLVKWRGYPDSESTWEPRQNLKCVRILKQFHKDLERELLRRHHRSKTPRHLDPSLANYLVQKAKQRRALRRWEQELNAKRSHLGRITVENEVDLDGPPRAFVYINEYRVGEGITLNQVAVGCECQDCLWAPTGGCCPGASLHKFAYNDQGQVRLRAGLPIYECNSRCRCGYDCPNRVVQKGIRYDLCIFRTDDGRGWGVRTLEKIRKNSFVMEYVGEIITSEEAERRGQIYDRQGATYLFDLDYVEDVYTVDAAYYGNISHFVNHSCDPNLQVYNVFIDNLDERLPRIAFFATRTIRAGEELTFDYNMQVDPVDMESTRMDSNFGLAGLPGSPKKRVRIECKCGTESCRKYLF
Procedure: Assay conditions. The human methyltransferase inhibition assays were performed at BPS Bioscience (San Diego, CA, USA). All of the enzymatic reactions were conducted in duplicate at room temperature for 60-960 min in a 50 μL mixture containing proper methyltransferase assay buffer, S-adenosylmethionine (SAM), enzyme, and the test compound. These 50 μL reactions were carried out in wells of a substrate pre-coated plate. First, enzyme and inhibitor were added to assay wells and preincubated for 30 min at room temperature, then SAM was added to start the reaction. Final DMSO concentration was 1% in all reactions.
After enzymatic reactions, the reaction mixtures were discarded and each of the wells was washed three times with TBST buffer, and slowly shaken with Blocking Buffer for 10 min. Wells were emptied, and 100 μL of diluted primary antibody was added. The plate was then slowly shaken for 60 minutes at room temperature. […] Immediately, the luminescence of the samples was measured in a BioTek Synergy™ 2 (Winooski, VT, USA) microplate reader using Gen5 software.
Data analysis. […] The luminescence data/alpha counts were analyzed and compared. […] The percent activity in the presence of each compound was calculated according to the following equation: % activity=(C−C0)/(Ce−C0), where C=the luminescence/alpha counts in the presence of the compound.

A549/ACE2/TMPRSS2 cells = assay: in vitro; settings: cell viability at 50 μM
Procedure: Percentage of infected cells was determined by dividing the number of infected cells by the total number of cells per well. The percentage of infected cells and total number of cells for each treatment was plotted into GraphPad prism (GraphPad Software; San Diego, CA, USA) to perform a non-linear regression analysis, generate infectious dose-response curves and to calculate EC50 and CC50 values.
Viability assays for the non-infected A549/ACE2/TMPRSS2 cells were performed using the 3-(4,5-dimethylthiazol-2-yl)-5-(3-carboxymethoxyphenyl)-2-(4-sulfophenyl)-2H-tetrazolium (MTS)-based tetrazolium reduction CellTiter 96 Aqueous Non-Radioactive cell proliferation assay (Promega G5430; Madison, WI) as described. Assays were conducted using parallel plates to those used in the immunofluorescence assay. Experimental details (cell line, number of cells seeded and incubation time) corresponded to those used in the immunofluorescence assay above. The data obtained were used to calculate the CC50 value using GraphPad Prism software.

[3] = Liver S9 stability assay, mouse liver S9; settings: n = 2, mean±SD

With `Nc1ncnc2c1ncn2[C@@H]1O[C@H](CNS(=O)(=O)c2ccc3ccccc3c2)[C@@H](O)[C@H]1O` [Compound 3, N-(((2R,3S,4R,5R)-5-(6-Amino-9H-purin-9-yl)-3,4-dihydroxytetrahydrofuran-2-yl)methyl)naphthalene-2-sulfonamide] the “Plasma Stability t1/2, Mouse” value ([1]; mouse plasma, 37° C., n = 3) was >24^d h, the “stability in mouse plasma” value ([1]; mouse, plasma) was “remarkably stable” and the “Human Liver S9 Stability t1/2, Phase I” value ([2]; cofactor NADPH) was 11.2 ± 2.27 h. The “Human Liver S9 Stability t1/2, Phase II” value ([2]; cofactor UDPGA) was >45^e min, the inhibition at 10 µM (SUV39H1) was 11% and the “CC50: NT (nontoxic)” value (A549/ACE2/TMPRSS2 cells) was “NT^b (NT, nontoxic, >95% cell viability at 50 μM;)”. The “Mouse Liver S9 Stability t1/2, Phase I” value ([3]; cofactor NADPH) was 4.55 ± 0.383 h and the “Mouse Liver S9 Stability t1/2, Phase II” value ([3]; cofactor UDPGA) was >45^e min.
